Here are results for one compound from patent publication US20200046860A1, “Systems and Methods for the Detection of Hydroxychloroquine-Mediated Cardiotoxicity” (Mayo Foundation for Medical Education and Research, priority 2018, published 2020).

One data set has as its system cardiac myocytes. Briefly: Endomyocardial biopsy of patient on hydroxychloroquine. The data set is classed as in vivo, human. To be noted: same patient. The method, then: An endomyocardial biopsy was performed on the same subject. […] Amyloid was not present on special stains, including sulfated Alcian blue stain and Congo red stains (C of FIG. 4 and D of FIG. 4, respectively, ×100 original magnification).

From the text for heart: Planar scintigraphy (D of FIG. 3) of ^99mTc-PYP uptake allows count comparison between the heart (right) with the contralateral chest (left) on 3-hour uptake anterior planar imaging.

With `CCN(CCO)CCCC(C)Nc1ccnc2cc(Cl)ccc12` (stereo not drawn) [hydroxychloroquine], in the data set on cardiac myocytes (light microscopy), the “hematoxylin and eosin-stained section finding” value is “marked sarcoplasmic vacuolization of cardiac myocytes”. The “toluidine blue-stained thick section finding” value in the data set with cardiac myocytes is listed as “dense sarcoplasmic inclusions”. The electron microscopy finding result in the data set with cardiac myocytes (in keeping with hydroxychloroquine-mediated cardiotoxicity) is “presence of myelinoid and curvilinear bodies”. Also, in the data set with cardiac myocytes (sulfated Alcian blue and Congo red stains), the “amyloid on special stains” value was “not present”. The “left ventricular wall finding on echocardiogram” value with heart (human, in vivo) is “concentric left ventricular wall thickening”. The “global averaged longitudinal peak systolic strain” value with heart (patient on hydroxychloroquine for 15 years, abnormal, most preserved at the apex) is on record as −10%.
